From the supplement of paper PMC10307832

Legend:
Test in all cases: relative viability (nuclei count vs DMSO), 5 days (fraction); higher = more cells survive
A-427 = tested on: A-427
Procedure, shortened: (§1)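 Lung cancer cell lines in 1536-well plates got either a single drug or a fixed anchor-drug dose together with five library-drug doses (not always all listed) in √10 steps, by pin tool, on the day after seeding. Nuclei were counted after 5 days, and relative viability is the treated-to-vehicle ratio of nuclei counts. Values are medians of duplicate plates.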

COR-L 105 = tested on: COR-L 105
Procedure, shortened: as §1

EKVX = tested on: EKVX
Procedure, shortened: as §1

EMC-BAC-2 = tested on: EMC-BAC-2
Procedure, shortened: as §1

H3255 = tested on: H3255
Procedure, shortened: as §1

HCC-366 = tested on: HCC-366
Procedure, shortened: as §1

LK-2 = tested on: LK-2
Procedure, shortened: as §1

LOU-NH91 = tested on: LOU-NH91
Procedure, shortened: as §1

NCI-H1563 = tested on: NCI-H1563
Procedure, shortened: as §1

NCI-H1666 = tested on: NCI-H1666
Procedure, shortened: as §1

NCI-H1734 = tested on: NCI-H1734
Procedure, shortened: as §1

NCI-H1755 = tested on: NCI-H1755
Procedure, shortened: as §1

NCI-H1975 = tested on: NCI-H1975
Procedure, shortened: as §1

NCI-H2170 = tested on: NCI-H2170
Procedure, shortened: as §1

NCI-H23 = tested on: NCI-H23
Procedure, shortened: as §1

NCI-H520 = tested on: NCI-H520
Procedure, shortened: as §1

NCI-H596 = tested on: NCI-H596
Procedure, shortened: as §1

PC-3 [JPC-3] = tested on: PC-3 [JPC-3]
Procedure, shortened: as §1

SK-MES-1 = tested on: SK-MES-1
Procedure, shortened: as §1

Work on `COc1cc2nccc(Oc3ccc(NC(=O)Nc4cc(C)on4)c(Cl)c3)c2cc1OC` [Tivozanib] + CS(=O)(=O)CCNCc1ccc(-c2ccc3ncnc(Nc4ccc(OCc5cccc(F)c5)c(Cl)c4)c3c2)o1 [Lapatinib] (partner 2 µM) yielded a relative viability (A-427; first compound 0.005 µM) of 1.02, a relative viability (A-427; first compound 0.01581 µM) of 1.04 and a relative viability (A-427; first compound 0.05 µM) of 1.04. It also gave a relative viability (A-427; first compound 0.1581 µM) of 0.96, a relative viability (A-427; first compound 0.5 µM) of 1.06 and a relative viability (COR-L 105; first compound 0.01581 µM) of 0.317. The relative viability (COR-L 105; first compound 0.05 µM) was 0.368, the relative viability (COR-L 105; first compound 0.1581 µM) was 0.322 and the relative viability (COR-L 105; first compound 0.5 µM) was 0.339. It also gave a relative viability (EKVX; first compound 0.005 µM) of 0.224, a relative viability (EKVX; first compound 0.01581 µM) of 0.199 and a relative viability (EKVX; first compound 0.05 µM) of 0.216. For the same compound, the relative viability (EKVX; first compound 0.1581 µM) was 0.182, the relative viability (EKVX; first compound 0.5 µM) was 0.192 and the relative viability (EMC-BAC-2; first compound 0.005 µM) was 0.954. For the same compound, the relative viability (EMC-BAC-2; first compound 0.01581 µM) was 0.875, the relative viability (EMC-BAC-2; first compound 0.05 µM) was 0.871 and the relative viability (EMC-BAC-2; first compound 0.1581 µM) was 0.675. The relative viability (EMC-BAC-2; first compound 0.5 µM) was 0.908, the relative viability (H3255; first compound 0.005 µM) was 0.247 and the relative viability (H3255; first compound 0.01581 µM) was 0.223. The relative viability (H3255; first compound 0.05 µM) was 0.23, the relative viability (H3255; first compound 0.1581 µM) was 0.232 and the relative viability (H3255; first compound 0.5 µM) was 0.211. The relative viability (HCC-366; first compound 0.005 µM) was 0.991, the relative viability (HCC-366; first compound 0.01581 µM) was 1.08 and the relative viability (HCC-366; first compound 0.05 µM) was 1.12. For the same compound, the relative viability (HCC-366; first compound 0.1581 µM) was 1.03, the relative viability (HCC-366; first compound 0.5 µM) was 0.976 and the relative viability (LK-2; first compound 0.005 µM) was 0.951. It also gave a relative viability (LK-2; first compound 0.01581 µM) of 0.842, a relative viability (LK-2; first compound 0.05 µM) of 0.918 and a relative viability (LK-2; first compound 0.1581 µM) of 0.742. It also gave a relative viability (LK-2; first compound 0.5 µM) of 0.683, a relative viability (LOU-NH91; first compound 0.005 µM) of 0.704 and a relative viability (LOU-NH91; first compound 0.01581 µM) of 0.772. It also gave a relative viability (LOU-NH91; first compound 0.05 µM) of 0.758, a relative viability (LOU-NH91; first compound 0.1581 µM) of 0.62 and a relative viability (LOU-NH91; first compound 0.5 µM) of 0.794. It also gave a relative viability (NCI-H1563; first compound 0.005 µM) of 0.848, a relative viability (NCI-H1563; first compound 0.01581 µM) of 0.985 and a relative viability (NCI-H1563; first compound 0.05 µM) of 0.938. It also gave a relative viability (NCI-H1563; first compound 0.1581 µM) of 0.856, a relative viability (NCI-H1563; first compound 0.5 µM) of 0.796 and a relative viability (NCI-H1666; first compound 0.005 µM) of 0.561. The relative viability (NCI-H1666; first compound 0.01581 µM) was 0.621, the relative viability (NCI-H1666; first compound 0.05 µM) was 0.641 and the relative viability (NCI-H1666; first compound 0.1581 µM) was 0.607. For the same compound, the relative viability (NCI-H1666; first compound 0.5 µM) was 0.84, the relative viability (NCI-H1734; first compound 0.005 µM) was 1.03 and the relative viability (NCI-H1734; first compound 0.01581 µM) was 1.05. It also gave a relative viability (NCI-H1734; first compound 0.05 µM) of 1.17, a relative viability (NCI-H1734; first compound 0.1581 µM) of 0.814 and a relative viability (NCI-H1734; first compound 0.5 µM) of 1.01. The relative viability (NCI-H1755; first compound 0.005 µM) was 0.945, the relative viability (NCI-H1755; first compound 0.01581 µM) was 0.991 and the relative viability (NCI-H1755; first compound 0.05 µM) was 1.03. For the same compound, the relative viability (NCI-H1755; first compound 0.1581 µM) was 1.02, the relative viability (NCI-H1755; first compound 0.5 µM) was 1.02 and the relative viability (NCI-H1975; first compound 0.005 µM) was 0.792. For the same compound, the relative viability (NCI-H1975; first compound 0.01581 µM) was 0.871, the relative viability (NCI-H1975; first compound 0.05 µM) was 0.864 and the relative viability (NCI-H1975; first compound 0.1581 µM) was 0.755. It also gave a relative viability (NCI-H1975; first compound 0.5 µM) of 0.723, a relative viability (NCI-H2170; first compound 0.005 µM) of 0.252 and a relative viability (NCI-H2170; first compound 0.01581 µM) of 0.296. The relative viability (NCI-H2170; first compound 0.05 µM) was 0.266, the relative viability (NCI-H2170; first compound 0.5 µM) was 0.289 and the relative viability (NCI-H23; first compound 0.005 µM) was 1.1. The relative viability (NCI-H23; first compound 0.01581 µM) was 1.37, the relative viability (NCI-H23; first compound 0.05 µM) was 1.09 and the relative viability (NCI-H23; first compound 0.1581 µM) was 0.858. It also gave a relative viability (NCI-H23; first compound 0.5 µM) of 0.942, a relative viability (NCI-H520; first compound 0.005 µM) of 0.763 and a relative viability (NCI-H520; first compound 0.01581 µM) of 0.912. It also gave a relative viability (NCI-H520; first compound 0.05 µM) of 0.87, a relative viability (NCI-H520; first compound 0.1581 µM) of 0.82 and a relative viability (NCI-H520; first compound 0.5 µM) of 0.757. The relative viability (NCI-H596; first compound 0.005 µM) was 0.998, the relative viability (NCI-H596; first compound 0.01581 µM) was 1.04 and the relative viability (NCI-H596; first compound 0.05 µM) was 1.04. The relative viability (NCI-H596; first compound 0.1581 µM) was 1.04, the relative viability (NCI-H596; first compound 0.5 µM) was 1.08 and the relative viability (PC-3 [JPC-3]; first compound 0.005 µM) was 0.429. For the same compound, the relative viability (PC-3 [JPC-3]; first compound 0.01581 µM) was 0.453, the relative viability (PC-3 [JPC-3]; first compound 0.05 µM) was 0.509 and the relative viability (PC-3 [JPC-3]; first compound 0.1581 µM) was 0.378. The relative viability (PC-3 [JPC-3]; first compound 0.5 µM) was 0.433, the relative viability (SK-MES-1; first compound 0.005 µM) was 0.421 and the relative viability (SK-MES-1; first compound 0.01581 µM) was 0.446. The relative viability (SK-MES-1; first compound 0.05 µM) was 0.5, the relative viability (SK-MES-1; first compound 0.1581 µM) was 0.437 and the relative viability (SK-MES-1; first compound 0.5 µM) was 0.509.
